Assay results published in ChEMBL document CHEMBL5036306 (J Med Chem, 2021).
Active and inactive are the calls of the source. The calls are words filed in the database; no cut-off is given here.

How the values were obtained:
Mus musculus [1] = test: Anti-alzheimer activity against amyloid beta (25 to 35) induced working memory deficit mouse assessed as step-through latency time to enter dark compartment at 0.1 to 0.3 mg/kg, ip administered for 7 days and measured on day 9 days by passive avoidance test; assay type: functional, organism-based; details: dose 0.1-0.3 mg/kg, time 9.0 day
[2] = biological target: T1, Protein deacetylase HDAC6 (Mus musculus) (UniProt Q9Z2V5); test: Inhibition of HDAC6 in mouse HT-22 cells assessed as increase in acetylated histone H4 level at 20 to 500 nM after 24 hrs by Western blotting analysis; assay type: cell-based; details: dose 20-500 nM
T1 sequence (whole entry): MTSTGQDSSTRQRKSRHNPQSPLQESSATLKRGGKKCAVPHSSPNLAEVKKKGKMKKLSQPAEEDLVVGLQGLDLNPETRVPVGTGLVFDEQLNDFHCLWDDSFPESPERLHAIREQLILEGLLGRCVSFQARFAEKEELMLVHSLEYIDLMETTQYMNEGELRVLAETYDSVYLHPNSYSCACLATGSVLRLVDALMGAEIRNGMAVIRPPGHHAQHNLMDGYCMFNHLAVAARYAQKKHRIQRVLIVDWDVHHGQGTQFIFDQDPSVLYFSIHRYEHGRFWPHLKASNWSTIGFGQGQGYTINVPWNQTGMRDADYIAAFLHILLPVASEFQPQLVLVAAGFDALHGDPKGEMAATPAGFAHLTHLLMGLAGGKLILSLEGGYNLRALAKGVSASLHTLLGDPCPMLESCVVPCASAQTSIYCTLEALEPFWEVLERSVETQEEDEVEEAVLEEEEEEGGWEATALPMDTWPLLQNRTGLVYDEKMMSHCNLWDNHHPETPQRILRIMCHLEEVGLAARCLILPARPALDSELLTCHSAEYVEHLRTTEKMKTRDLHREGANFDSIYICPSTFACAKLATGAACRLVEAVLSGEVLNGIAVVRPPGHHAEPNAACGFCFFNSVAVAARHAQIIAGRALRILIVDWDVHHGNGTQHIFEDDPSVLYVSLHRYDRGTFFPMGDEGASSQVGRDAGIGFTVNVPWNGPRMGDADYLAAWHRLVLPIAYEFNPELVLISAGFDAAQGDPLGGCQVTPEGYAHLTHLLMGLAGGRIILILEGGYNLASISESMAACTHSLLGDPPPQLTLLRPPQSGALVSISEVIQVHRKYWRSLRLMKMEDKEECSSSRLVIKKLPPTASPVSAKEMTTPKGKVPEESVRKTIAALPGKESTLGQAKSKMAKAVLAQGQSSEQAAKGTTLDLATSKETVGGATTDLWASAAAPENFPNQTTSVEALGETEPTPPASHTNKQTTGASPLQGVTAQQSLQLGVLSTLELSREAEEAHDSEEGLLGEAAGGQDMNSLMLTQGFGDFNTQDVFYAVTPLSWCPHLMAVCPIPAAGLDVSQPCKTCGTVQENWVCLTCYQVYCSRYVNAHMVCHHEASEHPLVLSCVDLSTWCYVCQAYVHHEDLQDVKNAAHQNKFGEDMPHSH

[3] = biological target: T1, Protein deacetylase HDAC6 (Mus musculus); test: Inhibition of HDAC6 in mouse HT-22 cells assessed as increase in acetylated tubulin level at 20 to 500 nM after 24 hrs by Western blotting analysis; assay type: cell-based; details: dose 20-500 nM
Mus musculus [4] = test: Anti-alzheimer activity against amyloid beta (25 to 35) induced working memory deficit mouse assessed as step-through latency time to enter dark compartment at 1 mg/kg, ip administered for 7 days and measured on day 9 days by passive avoidance test; assay type: functional, organism-based; details: time 9.0 day
[5] = biological target: T1, Protein deacetylase HDAC6 (Mus musculus); test: Inhibition of HDAC6 in mouse HT-22 cells assessed as increase in acetylated histone H3 level at 20 to 500 nM after 24 hrs by Western blotting analysis; assay type: cell-based; details: dose 20-500 nM
Mus musculus [6] = test: Cognitive enhancing effect in mouse model of Alzheimer's disease at 1 mg/kg; assay type: functional, organism-based
[7] = Toxicity in mouse model of Alzheimer's disease assessed as drug tolerability at 0.3 to 3 mg/kg, ip measured after 7 days; assay type: organism-based; details: in vivo, 168 h, dose 0.3-3 mg/kg, time 7 day
Mus musculus [8] = test: Anti-alzheimer activity against amyloid beta (25 to 35) induced working memory deficit in mouse assessed as increase in spontaneous alternation performance at 0.3 to 1 mg/kg, ip administered for 7 days and measured on day 8 by Y-maze test; assay type: functional, organism-based; details: dose 0.3-1 mg/kg, time 8.0 day
N9 = test: Immunomodulatory activity in mouse N9 microglial cells assessed as reduction in LPS-induced iNOS expression incubated for 24 hrs by Western blot analysis; assay type: functional, cell-based; details: dose 0.1-5 µM
[9] = biological target: T1, Protein deacetylase HDAC6 (Mus musculus); test: Inhibition of HDAC6 in mouse HT-22 cells assessed as increase in acetylated tubulin level at […] after 24 hrs by Western blotting analysis; assay type: cell-based

SMILES	Activity (Mus musculus [1])	inhibition [2]	inhibition [3]	Activity (Mus musculus [4])	inhibition [5]	Activity (Mus musculus [6])	Activity [7]	Activity (Mus musculus [8])	Activity (N9)	inhibition [9]
COc1ccc2[nH]cc(CCN(Cc3ccc(C(=O)NO)cc3)C(=O)/C=C/c3ccc(O)c(OC)c3)c2c1	Active	inactive	Active	inactive	inactive	Active	Non-Toxic	Active	Dose-Dependent Effect	
COc1ccc2c(c1)c(CCNC(C)=O)cn2Cc1ccc(C(=O)NO)cc1										Active
